The text below walks through data of article PMC4167603 (Nature, 2014).

Test [1] addresses T1, GABAAR β3 homopentamer (GABAAR-β3cryst) (Homo sapiens, UniProt P28472, DEL333-446/INS332SQPARAA).
T1 sequence (P28472 with tags, fused parts or gaps INS332SQPARAA): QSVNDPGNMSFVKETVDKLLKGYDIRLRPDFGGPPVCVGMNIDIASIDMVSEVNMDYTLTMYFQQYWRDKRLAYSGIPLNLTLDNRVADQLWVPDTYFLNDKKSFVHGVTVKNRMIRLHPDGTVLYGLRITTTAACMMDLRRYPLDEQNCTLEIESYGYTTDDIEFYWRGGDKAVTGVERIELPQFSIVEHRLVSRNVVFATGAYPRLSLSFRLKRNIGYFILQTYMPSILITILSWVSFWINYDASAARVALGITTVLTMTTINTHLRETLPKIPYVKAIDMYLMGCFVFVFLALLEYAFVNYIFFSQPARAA
T1 sequence (P28472 447-473): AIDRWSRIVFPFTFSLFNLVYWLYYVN
The experiment in a line: X-ray co-crystal structure. It is filed as cell-based.

The target of test [2] is T1, GABAAR β3 homopentamer (GABAAR-β3cryst). The experiment in a line: thermostabilisation of purified receptor. It is filed as binding.
Test [3] shares this target. The experiment in a line: thermostabilisation of purified receptor. In kind it is binding. This is another data set of the same source.

As a reminder, the EC50 is the midpoint of the concentration-response curve. Low readings indicate an effect from little substance, high ones a need for much substance. In test [1], `N=C(N)c1ccccc1` [benzamidine] gave an EC50 of 61 ± 12 µM.

In the case of `N#Cc1nn(-c2c(Cl)cc(C(F)(F)F)cc2Cl)c(N)c1[S+]([O-])C(F)(F)F` (stereo not drawn) [fipronil], in test [2], a half-maximal response (EC50) required 0.026 ± 0.005 µM.

In turn, `NCCc1c[nH]cn1` [histamine] gave an EC50 in test [3] of 400 ± 150 µM.
